Measured values from US5427766A, “Radiolabeled steroids for use in radiochemical-guided surgery” (priority 1993, dated 1995).

How the values were obtained:
Design in all cases: species or system athymic female NCR-Nu Mice
[1] = system: MCF-7 tumors located intraperitoneally; assay: In vivo localization (biodistribution) in athymic female nude mice bearing intraperitoneal MCF-7 tumors; conditions: for Percent Injected Dose/Gram, blood / Percent Injected Dose/Gram, fat / Percent Injected Dose/Gram, kidney / Percent Injected Dose/Gram, liver / Percent Injected Dose/Gram, muscle / Percent Injected Dose/Gram, spleen / Percent Injected Dose/Gram, tumor / Percent Injected Dose/Gram, uteri: tail vein, intraperitoneal MCF-7, mean, n = 5
Method: (§1) In vivo localization of 11β-ethyl-17α-(Z)-[^125 I](iodovinyl)estra-3,17β-diol (5) and a control compound 16α-[^125 I]iodovinyl-3,17β-estradiol (commercially available from DuPont New England Nuclear, MA) was determined in athymic female NCR-Nu Mice (purchased from Simonsen Laboratories, Gilroy, Calif.) bearing subcutaneous MCF-7(ER+) breast tumor xenografts. Prior to injection of the compounds, the mice were each implanted with fragments of MCF-7 breast tumor (approximately 2 cubic millimeters) in the subcutis of the left flank. At approximately the same time, a 1.7 mg estradiol pellet (Innovative Research of America, Toledo, Ohio) was implanted in the scapular region. The tumors were allowed to grow until they reached between 50 and 200 mg by visual inspection (approximately four to five weeks) prior to injection of the test compounds. One day prior to injection of the test compounds, the estradiol pellet was removed.
(§2) The mice were each injected via tail vein with between 3 (1.1×10^5 Bq) and 6 μCi ([…]) ^125 I in approximately 50 μL of phosphate buffered saline. The mice were sacrificed at various time intervals. After exsanguination, the selected organ/tissue were excised, weighed and radioactivity measured in a gamma counter. The counts per minute (cpm) of 125I in each tissue was determined and expressed as cpm per gram of tissue per injected dose multiplied by 100 (percent injected dose/gram).
The procedure of Example 3 was followed except each mouse was inoculated intraperitoneally with MCF-7 breast carcinoma cell line (7.5×10^6 cell/50 μL) rather than implanted subcutaneously with MCF-7 breast tumor. One day prior to this procedure, a 1.7 mg estradiol pellet was implanted subcutaneously in the scapular region. The tumor cells were allowed to form solid tumor nodules for 4 to 6 weeks prior to injection of the test compounds.

[2] = system: MDA-MB-231 (ER-) breast tumor xenografts; assay: In vivo biolocalization with gamma detecting probe, tumor/background ratio, MDA-MB-231 (ER-) tumor; conditions: MDA-MB-231 tumor, foreleg background, n = 5
Method: (§3) In vivo biolocalization of 11β-ethyl-17α-(Z)-[^125 I](iodovinyl)estra-3,17β-diol (5) and a control compound 16α-[^125 I](iodovinyl)-3,17β-estradiol was determined in athymic female NCR-Nu Mice bearing subcutaneous MCF-7(ER+) breast tumor xenografts and MDA-MB-231 (ER-) breast tumor xenografts. The mice were at least 5 weeks old prior to injection into the right-hand flank with […] of MCF-7 breast carcinoma cells ([…]). One day prior to this procedure, the mice were implanted subcutaneously with a 1.7 mg estradiol pellet in the scapular region. Four to six weeks post-injection of the MCF-7 cells the estradiol pellet was removed and the mice inoculated in the left hind flank with 75 μL NDA-MB-231 breast tumor cells ([…]). Seven to ten days prior to injection of the test compounds, an estradiol pellet was again implanted in the scapular region. One to two days prior to injection of the test compounds, the estradiol pellet was removed, and 5 mice arbitrarily assigned to each test group.
(§4) The mice were each injected via tail vein with between 3 ([…]) and […] ([…]) 125 iodine in approximately […] of phosphate-buffered saline. At various time intervals after injection of the test compounds, each group of mice was anesthetized with methoxyflurane in order to measure the radioactivity over the ER+ and ER- tumors and the front leg for use as a background and the thoraxic area which served as a blood pool control using a gamma detecting probe (RIGS ^TM Model 1001 control unit, Neoprobe Corporation, Columbus, Ohio). Three 20 to 60 second counts were recorded at each area measured at each time point.
(§5) ^c Tu/Bkg = Mean(1-5) of (mean tumor countsn - mean foreleg
(§6) background countsn)/mean foreleg background

[3] = system: MCF-7(ER+) breast tumor xenografts; assay: In vivo localization (biodistribution) in athymic female nude mice bearing subcutaneous MCF-7 tumor xenografts; conditions: for Percent Injected Dose/Gram, blood / Percent Injected Dose/Gram, fat / Percent Injected Dose/Gram, kidney / Percent Injected Dose/Gram, liver / Percent Injected Dose/Gram, muscle / Percent Injected Dose/Gram, spleen / Percent Injected Dose/Gram, tumor / Percent Injected Dose/Gram, uteri: tail vein, subcutaneous MCF-7, mean, n = 5
Method: as §1, §2

[4] = system: MCF-7(ER+) breast tumor xenografts; assay: In vivo biolocalization with gamma detecting probe, tumor/background ratio, MCF-7 (ER+) tumor; conditions: for Tumor/Background Ratio (Tu/Bkg): MCF-7 tumor, foreleg background, n = 5
Method: as §3, §4, §5, §6

## C[C@]12CC[C@@H]3c4ccc(O)cc4CC[C@H]3[C@@H]1C[C@@H]([125I])[C@@H]2O [16α-Iodo-[^125 I]-3,17β-Estradiol]
[1]; 48 hours post-injection, uteri and tumors, intraperitoneal MCF-7
  radioactivity in the uteri and tumors: no radioactivity defected
[1]; 10-12 hours
  Percent Injected Dose/Gram, blood: 0.50 Percent Injected Dose/Gram
  Percent Injected Dose/Gram, fat: 0.01 Percent Injected Dose/Gram
  Percent Injected Dose/Gram, kidney: 0.24 Percent Injected Dose/Gram
  Percent Injected Dose/Gram, liver: 0.84 Percent Injected Dose/Gram
  Percent Injected Dose/Gram, muscle: 0.00 Percent Injected Dose/Gram
  Percent Injected Dose/Gram, spleen: 0.15 Percent Injected Dose/Gram
  Percent Injected Dose/Gram, tumor: 0.40 Percent Injected Dose/Gram
  Percent Injected Dose/Gram, uteri: 0.45 Percent Injected Dose/Gram
[1]; 2 hours
  Percent Injected Dose/Gram, blood: 0.84 Percent Injected Dose/Gram
  Percent Injected Dose/Gram, fat: 0.92 Percent Injected Dose/Gram
  Percent Injected Dose/Gram, kidney: 0.83 Percent Injected Dose/Gram
  Percent Injected Dose/Gram, liver: 6.54 Percent Injected Dose/Gram
  Percent Injected Dose/Gram, muscle: 0.12 Percent Injected Dose/Gram
  Percent Injected Dose/Gram, spleen: 0.34 Percent Injected Dose/Gram
  Percent Injected Dose/Gram, tumor: 1.35 Percent Injected Dose/Gram
  Percent Injected Dose/Gram, uteri: 2.89 Percent Injected Dose/Gram
[1]; 6 hours
  Percent Injected Dose/Gram, blood: 0.74 Percent Injected Dose/Gram
  Percent Injected Dose/Gram, fat: 0.14 Percent Injected Dose/Gram
  Percent Injected Dose/Gram, kidney: 0.41 Percent Injected Dose/Gram
  Percent Injected Dose/Gram, liver: 5.37 Percent Injected Dose/Gram
  Percent Injected Dose/Gram, muscle: 0.07 Percent Injected Dose/Gram
  Percent Injected Dose/Gram, spleen: 0.36 Percent Injected Dose/Gram
  Percent Injected Dose/Gram, tumor: 0.75 Percent Injected Dose/Gram
  Percent Injected Dose/Gram, uteri: 1.09 Percent Injected Dose/Gram
[1]; 24 hours
  Percent Injected Dose/Gram, blood: 0.06 Percent Injected Dose/Gram
  Percent Injected Dose/Gram, fat: 0.00 Percent Injected Dose/Gram
  Percent Injected Dose/Gram, kidney: 0.03 Percent Injected Dose/Gram
  Percent Injected Dose/Gram, liver: 0.15 Percent Injected Dose/Gram
  Percent Injected Dose/Gram, muscle: 0.00 Percent Injected Dose/Gram
  Percent Injected Dose/Gram, spleen: 0.01 Percent Injected Dose/Gram
  Percent Injected Dose/Gram, tumor: 0.02 Percent Injected Dose/Gram
  Percent Injected Dose/Gram, uteri: 0.02 Percent Injected Dose/Gram
[1]; 48 hours
  Percent Injected Dose/Gram, blood: 0.03 Percent Injected Dose/Gram
  Percent Injected Dose/Gram, fat: 0.00 Percent Injected Dose/Gram
  Percent Injected Dose/Gram, kidney: 0.00 Percent Injected Dose/Gram
  Percent Injected Dose/Gram, liver: 0.08 Percent Injected Dose/Gram
  Percent Injected Dose/Gram, muscle: 0.00 Percent Injected Dose/Gram
  Percent Injected Dose/Gram, spleen: 0.00 Percent Injected Dose/Gram
  Percent Injected Dose/Gram, tumor: 0.00 Percent Injected Dose/Gram
  Percent Injected Dose/Gram, uteri: 0.00 Percent Injected Dose/Gram
[2]; 10-12 hours
  Tumor/Background Ratio (Tu/Bkg): 2.51 ± 1.40
[2]; 2 hours
  Tumor/Background Ratio (Tu/Bkg): 10.96
[2]; 6 hours
  Tumor/Background Ratio (Tu/Bkg): 6.23 ± 3.02
[2]; 24 hours
  Tumor/Background Ratio (Tu/Bkg): 0.85 ± 0.29
[2]; 48 hours
  Tumor/Background Ratio (Tu/Bkg): 0.08 ± 0.19
[3]; 48 hours post-injection, uteri and tumors, subcutaneous MCF-7
  radioactivity in the uteri and tumors: no radioactivity defected
[3]; 10-12 hours
  Percent Injected Dose/Gram, blood: 0.16 Percent Injected Dose/Gram
  Percent Injected Dose/Gram, fat: 0.00 Percent Injected Dose/Gram
  Percent Injected Dose/Gram, kidney: 0.10 Percent Injected Dose/Gram
  Percent Injected Dose/Gram, liver: 0.55 Percent Injected Dose/Gram
  Percent Injected Dose/Gram, muscle: 0.00 Percent Injected Dose/Gram
  Percent Injected Dose/Gram, spleen: 0.05 Percent Injected Dose/Gram
  Percent Injected Dose/Gram, tumor: 0.09 Percent Injected Dose/Gram
  Percent Injected Dose/Gram, uteri: 0.38 Percent Injected Dose/Gram
[3]; 2 hours
  Percent Injected Dose/Gram, blood: 0.59 Percent Injected Dose/Gram
  Percent Injected Dose/Gram, fat: 0.88 Percent Injected Dose/Gram
  Percent Injected Dose/Gram, kidney: 0.64 Percent Injected Dose/Gram
  Percent Injected Dose/Gram, liver: 3.33 Percent Injected Dose/Gram
  Percent Injected Dose/Gram, muscle: 0.07 Percent Injected Dose/Gram
  Percent Injected Dose/Gram, spleen: 0.28 Percent Injected Dose/Gram
  Percent Injected Dose/Gram, tumor: 0.91 Percent Injected Dose/Gram
  Percent Injected Dose/Gram, uteri: 2.81 Percent Injected Dose/Gram
[3]; 6 hours
  Percent Injected Dose/Gram, blood: 0.58 Percent Injected Dose/Gram
  Percent Injected Dose/Gram, fat: 0.25 Percent Injected Dose/Gram
  Percent Injected Dose/Gram, kidney: 0.37 Percent Injected Dose/Gram
  Percent Injected Dose/Gram, liver: 1.93 Percent Injected Dose/Gram
  Percent Injected Dose/Gram, muscle: 0.05 Percent Injected Dose/Gram
  Percent Injected Dose/Gram, spleen: 0.25 Percent Injected Dose/Gram
  Percent Injected Dose/Gram, tumor: 0.41 Percent Injected Dose/Gram
  Percent Injected Dose/Gram, uteri: 1.02 Percent Injected Dose/Gram
[3]; 24 hours
  Percent Injected Dose/Gram, blood: 0.03 Percent Injected Dose/Gram
  Percent Injected Dose/Gram, fat: 0.00 Percent Injected Dose/Gram
  Percent Injected Dose/Gram, kidney: 0.00 Percent Injected Dose/Gram
  Percent Injected Dose/Gram, liver: 0.09 Percent Injected Dose/Gram
  Percent Injected Dose/Gram, muscle: 0.00 Percent Injected Dose/Gram
  Percent Injected Dose/Gram, spleen: 0.00 Percent Injected Dose/Gram
  Percent Injected Dose/Gram, tumor: 0.00 Percent Injected Dose/Gram
  Percent Injected Dose/Gram, uteri: 0.02 Percent Injected Dose/Gram
[3]; 48 hours
  Percent Injected Dose/Gram, blood: 0.01 Percent Injected Dose/Gram
  Percent Injected Dose/Gram, fat: 0.00 Percent Injected Dose/Gram
  Percent Injected Dose/Gram, kidney: 0.00 Percent Injected Dose/Gram
  Percent Injected Dose/Gram, liver: 0.06 Percent Injected Dose/Gram
  Percent Injected Dose/Gram, muscle: 0.00 Percent Injected Dose/Gram
  Percent Injected Dose/Gram, spleen: 0.00 Percent Injected Dose/Gram
  Percent Injected Dose/Gram, tumor: 0.00 Percent Injected Dose/Gram
  Percent Injected Dose/Gram, uteri: 0.00 Percent Injected Dose/Gram
[4]; 10-12 hours
  Tumor/Background Ratio (Tu/Bkg): 4.46 ± 1.44
[4]; 2 hours
  Tumor/Background Ratio (Tu/Bkg): 12.73
[4]; 6 hours
  Tumor/Background Ratio (Tu/Bkg): 9.58 ± 4.69
[4]; 24 hours
  Tumor/Background Ratio (Tu/Bkg): 1.13 ± 0.16
[4]; 48 hours
  Tumor/Background Ratio (Tu/Bkg): 0.13 ± 0.08
[4]; after 10 to 12 hours
  tumor to background ratios / localization at the tumor site (in words): not being maintained or localized at the tumor site
[4]; at 10 to 12 hours
  tumor to background ratios (in words): good tumor to background ratios
